Measured values from paper PMC10660337, “Mutate and Conjugate: A Method to Enable Rapid In-Cell Target Validation” (ACS Chemical Biology, 2023).
“And” between values parts separate entries of the source, which are not always exact repeats. Equal values may be shown once. “Also recorded” adds a separate entry of the source.

Tests used:
BRD4(1)^L94C [1] = molecular target: T1, BRD4(1)^L94C (Homo sapiens, UniProt O60885, L94C); test: Fluorescent labeling of purified protein (CuAAC with TAMRA-PEG3-azide, in-gel fluorescence); assay type: binding; conditions: 50 μM probe, 10 μM protein, 4 h, 37 °C, then CuAAC 1 h
T1 construct: Characterization of His6-BRD4(1)L94C; made in house; host or cells: E. coli BL21 (DE3)
Method: When 28, 29, 30, and 42 were incubated with either purified BRD4(1)^L94C or BRD4(1)^WT and subjected to a copper(I)-catalyzed alkyne–azide click reaction (CuAAC) reaction with the fluorescent TAMRA-PEG3-azide dye, all clickable probes labeled the mutant protein and could be visualized using fluorescence imaging of a gel (Figure 6).
Figure 6 Clickable probes 28, 29, 30, and 42 covalently label BRD4(1)^L94C and undergo a subsequent CuAAC reaction with TAMRA-PEG3 azide to fluorescently label the protein, as shown by in-gel fluorescence imaging. Compounds 28, 29, 30, 41, and 42 (50 μM) were incubated with purified BRD4(1)^L94C or BRD4(1)^WT (10 μM) for 4 h at 37 °C, followed by CuAAC reaction with TAMRA-PEG3 azide for 1 h and separation of components by SDS-PAGE. For all compounds other than 30, only labeling of BRD4(1)^L94C was observed. […]
Fluorescent labeling of purified proteins
Assays were performed in 1.5 mL Eppendorf tubes at 37 °C, and gently shaken, unless otherwise stated.
The desired click probe (50 µM) was incubated with protein (10 µM) in protein LCMS buffer for 4 h, after which TAMRA-PEG3-Azide (200 µM), TCEP·HCl (1 mM), TBTA (100 µM), and CuSO4 (1 mM) were added and incubated for a further 1 h at room temperature in the dark. A 25 µL sample of the […]
(§1) reaction mix was taken and 8 µL of Lamelli buffer added, and the samples denatured by heating at 95 °C for 10 min. Samples were separated by gel electrophoresis on NuPAGE™ 4–12%, Bis-Tris precast polyacrylamide gels (Thermofisher). Following electrophoresis, gels were stained for 15 min with InstantBlueTM Coomasie® stain (Abcam), destained, and imaged using Bio-rad molecular imager.
Bio-rad Image Lab 6.1 was used to process the data. […]
InstantBlueTM Coomasie® stain (Abcam), destained, and imaged using Bio-rad molecular imager. […]
(§2) MEM media. Cells were then harvested and lysed using the previously described protocol above. […]

[2] = test system: T2, BRD4(1)^L94C transiently expressed in HEK293T cells; test: In-cell labeling by clickable probes, in-gel fluorescence; assay type: cell-based, human
T2 construct: the L94C mutation in the first bromodomain of BRD4 [BRD4(1)]; StrepII; expressed in transfected cells; host or cells: HEK293T
Method: (§3) To evaluate proteome-wide selectivity of the clickable probes, HEK293T cells transiently expressing BRD4(1)^L94C or BRD4(1)^WT were incubated with 10 μM of probes 28–30 and 42 for 1 h before the cells were lysed and the CuAAC reaction with TAMRA-PEG3-azide was conducted (Figure 7A). […]
as §1
(§4) Bio-rad Image Lab 6.1 was used to process the data.
(§5) In-cell target engagement
(§6) In-cell labeling by clickable probes
(§7) Transfected HEK293T cells at ~90% confluency were incubated for 1 h with a DMSO control (0.5% DMSO final concentration) or a click probe (10 µM, 0.5% DMSO final concentration) diluted in Opti- […]
Cells were then harvested and lysed using the previously described protocol above. The resulting cell lysates were diluted to 2 mg/mL using the previously described protocol above.
Cell lysates (50 µL) were then incubated with TAMRA-PEG3-Azide (200 µM), TCEP·HCl (2 mM), TBTA (200 µM), and CuSO4 (2 mM), for 1 h at rt in the dark. Samples were then prepared and separated by gel electrophoresis using the previously described protocol above.
Gels were imaged for fluorescence using Bio-rad molecular imager and then stained for 15 min with InstantBlueTM Coomasie® stain (Abcam), destained, and imaged using Bio-rad molecular imager.
Typically, the very bottom of the gel was removed prior to imaging due to residual, unreacted, TAMRA-PEG3-Azide, which would cause oversaturation and poor image quality. […]
as §2

BRD4(1)^L94C [3] = molecular target: T1, BRD4(1)^L94C; test: Protein LCMS labeling assay 1; assay type: binding
Method: The resulting library of 22 fragments was screened for BRD4(1)^L94C binding at a concentration of 50 μM using a protein LCMS assay (referred to as “labeling assay 1”). […] To assess the selectivity of the fragments for the labeling of C94, hits were also screened against BRD4(1)^WT under the same conditions. […] The acrylamide-based fragment, 12, labeled 98% of BRD4(1)^L94C after 4 h. While 95% of the protein was labeled once, 3% of the protein was labeled twice (Figure 5D). […] Fragment 14, designed by appending a β-dimethylaminomethyl acrylamide to the structure of 12, led to 74% of singly labeled BRD4(1)^L94C after 4 h with no labeling of BRD4(1)^WT observed (Table 1 and Figure 5E). […] However, only 9.9% of labeled BRD4(1)^L94C was observed, substantially lower than the 56% labeling observed for the corresponding 3-methyl regioisomer 10 (Table 1). […]
Assays were performed in 1.5 mL Eppendorf tubes at 37 °C and gently shaken, unless otherwise stated.
Experiments were performed in a protein LCMS assay buffer, with 10 µM protein, and 50 µM of the desired compound with a final DMSO concentration of 0.5% (Table S16). Time points were taken at 0, 1 and 4 h, unless otherwise stated, where a 20 µL sample of the reaction mix was taken, diluted with 100 µL Milli-Q water, and flash frozen. Samples were thawed immediately prior to LCMS analysis on a Waters Xevo G2-S system (Waters) fitted with a ProSwift™ RP-2H PSDVB Reversed Phase HPLC Column (Thermofisher). Data was analysed and processed using MassLynx. The total ion chromatograms (TIC) were extracted (region containing protein) and the summed scans were deconvoluted (using MaxEnt). Covalent labeling was calculated using intensities of the unlabeled and labeled protein (Equation 1). Figures were made using GraphPad Prism 7.0.
Table S16. Buffer composition for protein LCMS.
Buffer Reagent Composition Amount per 1 L
Protein LCMS Assay Buffer HEPES 25 mM 6.0 g
Protein Labelling = Intensity of Labelled Peak × 100

[4] = test system: endogenous proteins of HEK293T cells; test: In-cell proteome-wide selectivity of clickable probes; assay type: cell-based, human; conditions: 10 μM probe, 1 h, live HEK293T cells expressing BRD4(1)^L94C or BRD4(1)^WT
Method: as §3, §1, §4, §5, §6, §7
Cells were then harvested and lysed using the previously described protocol above. The resulting cell lysates were diluted to 2 mg/mL using the previously described protocol above. […]
Gels were imaged for fluorescence using Bio-rad molecular imager and then stained for 15 min with InstantBlueTM Coomasie® stain (Abcam), destained, and imaged using Bio-rad molecular imager. […]

[5] = 50 μM compound, 10 µM protein, 37 °C, mean of three ± s.e.m., ND = not detectable

Structure (SMILES): C#CCOc1ccc(-c2c(C)noc2NC(=O)C=C)cc1 [Compound 30]
- Labeling of purified BRD4(1)^L94C, in-gel fluorescence (BRD4(1)^L94C [1]): high levels
- In-cell BRD4(1)^L94C engagement (fluorescent band ∼49 kDa) ([2]; 10 μM probe, 1 h): highest level of BRD4(1)^L94C engagement
- Labeled Protein (%) L94C 1 h (BRD4(1)^L94C [3]; [5]): 96 ± 0.2%
- Second labeling event, share of total labeled protein (BRD4(1)^L94C [3]; labeling assay 1, 50 μM): 3%
- Proteome-wide selectivity / off-target binding to endogenous proteins [4]: low cellular selectivity

Structure (SMILES): C#CCOc1cc(NC(=O)C=C)ccc1N1CCCC1=O [Compound 42]
- Labeling of purified BRD4(1)^L94C, in-gel fluorescence (BRD4(1)^L94C [1]): high levels
- Dose dependence of in-cell BRD4(1)^L94C labeling ([2]; 1 to 10 μM): dose dependent
- Time dependence of in-cell BRD4(1)^L94C labeling ([2]; time course 0.5–4 h): time-dependent
- Labeled Protein (%) L94C 1 h (BRD4(1)^L94C [3]; [5]): 37% and 37 ± 1.2%
- Labeled Protein (%) L94C 4 h (BRD4(1)^L94C [3]; 50 μM compound, 10 µM protein, 37 °C, 4 h, mean of three ± s.e.m., ND = not detectable): 82% and 82 ± 1.1%
- Proteome-wide selectivity / off-target binding to endogenous proteins [4]: exquisite proteome-wide selectivity; also recorded: almost complete selectivity
